Several values for one entry are separate records, joined by “and”; a condition that tells them apart may be missing. Equal values may be shown once.
Assays:
S. typhi = assay: Antibacterial agar well diffusion; format: cell-based, Salmonella typhi (ATCC0650); conditions: 6.25 mg/mL per well, 37 °C, 24 h; for zone of inhibition at 6250 µg/mL: Salmonella enterica, TYPHI
Source text: (§1) The antibacterial assay was done for all compounds (1–6) as described in previous studies. The mean number of viable organisms per milliliter of stock suspensions containing Escherichia coli (ATCC25922), Pseudomonas aeruginosa (ATCC27853), Salmonella typhi (ATCC0650), and Staphylococcus aureus (NCTC25953) was uncovered using the surface viable counting method. Preparations of suspensions containing approximately 108–109 colony forming units (CFU) per milliliter were made. Aseptic nutritional agar was formulated and transferred onto petri dishes. Cultures of bacteria were uniformly distributed on agar surface using sterile brush sticks. Five wells, each with a diameter of 6 mm, were made in each plate using a sterile borer. Afterwards, a concentration of 6.25 mg/mL of each component was applied to separate wells. Cephradine, a readily accessible antibiotic, was employed as a reference standard at an equivalent concentration. Following sealing, the agar dishes were incubated at a controlled temperature of 37 °C for a period of 24 h. The zone of inhibition in the plates was determined, which represents the inhibition of bacterial growth. Each sample zone of inhibition diameter was evaluated, and the antibacterial effectiveness of each drug was quantified according to the mean diameter of the inhibition zone (in millimetres).

P. aeruginosa = assay: Antibacterial agar well diffusion; format: cell-based, Pseudomonas aeruginosa (ATCC27853); conditions: Pseudomonas aeruginosa, 24 h, 6.25 mg/mL per well, 37 °C
Source text: as §1

[1] = biological target: T1, butyryl cholinesterase (BChE) (Equus caballus, UniProt P81908); assay: Anticholinesterase assay (Elman's test), BChE; format: biochemical; conditions: for inhibition at 62.5 µg/mL / inhibition at 125 µg/mL / inhibition at 250 µg/mL / inhibition at 500 µg/mL / inhibition at 1000 µg/mL: read-out: BChE Percent inhibition
T1 construct: The AChE was derived from the electric eel, while BChE was obtained from equineserum; from tissue; host or cells: equine serum
Method: (§2) This assay employed two enzymes, namely acetylcholinesterase (AChE) and butyryl cholinesterase (BChE). The AChE was derived from the electric eel, while BChE was obtained from equineserum. The synthesized compounds were dissolved in phosphate buffer (0.1 M, pH 8.0). The enzymes AChE (518 U/mg) and BChE (7–16 U/mg) were diluted in a 0.1 M phosphate buffer to achieve concentrations of 0.03 U/mL and 0.01 U/mL, respectively. Preparations of ATchI (0.5 mM), DTNB (0.2273 mM), and BTchI (0.5 mM) were made in distilled water and stored at a low temperature of 8 °C. […] The solution was heated to 30 °C for 15 min, followed by the gradual addition of the substrate. Absorbance of the heated sample at 412 nm was measured using a double beam spectrophotometer. […] The percentage activity (A) and inhibition of the enzyme were determined by applying the rate of absorption as a function of time (V=ΔAbs/Δt) using the following equation (Equation (2)).(2) %Inhibition=V/Vmax×100 Where V = enzyme inhibition activity of products and Vmax = enzyme activity without test of product.

[2] = ABTS free radical scavenging assay; format: biochemical
Method: (§3) In accordance with the procedure described in the literature, the ABTS activity assay was applied to evaluate the free radical scavenging capabilities of the synthesized compounds (1–6). ABTS solution was prepared by mixing 7 mM ABTS and 2.45 mM potassium persulfate and was then placed for 16 h under dark at room temperature. A methanol dilution was performed on the solution to achieve an absorbance of 0.706 ± 0.001 at 734 nm before starting the assay. To quantify the assay, 3 mL of the ABTS solution has been added to different concentrations (ranging from 62.5 to 1000 μg/mL) of every compound (300 μL) that were dissolved in methanol. Then after 1 min of incubation, the absorbance was continuously measured for 5 min. To confirm precision, all experiments were conducted in triplicate. The antioxidant capacities of the compounds were assessed with gallic acid as a reference, and the ability to remove free radicals was calculated as a percentage for each compound employing Equation.1 as presented below. Additionally, the DPPH free radical scavenging method was employed to assess the antioxidant activity of compounds (1–6), in accordance with a widely recognized procedure documented in existing literature. Concentrations ranging from 62.5 to 1000 μg/mL of compounds (1–6), dissolved in methanol, were introduced into a 2 mL solution of DPPH (0.002 % in methanol). The resulting solutions were kept in the dark at room temperature for a duration of 30 min. The amount of light absorbed by the solutions was then determined using a UV/vis spectrophotometer at a wavelength of 517 nm. The investigations were performed three times, using the exact protocol described for the ABTS scavenging assay. Afterwards, the antioxidant capabilities of each molecule were assessed using calculation.(1) Scavengingactivity(%)=A−B/A×100
(§4) Where, A = absorbance of ABTS/DPPH and B = absorbance of solution containing ABTS/DPPH and test samples.

S. flexenari = assay: Antibacterial agar well diffusion; format: cell-based; conditions: 24 h, 6.25 mg/mL per well, 37 °C
[3] = biological target: T2, acetylcholinesterase (AChE) (Electrophorus electricus, UniProt O42275); assay: biochemical; conditions: for inhibition at 62.5 µg/mL / inhibition at 125 µg/mL / inhibition at 250 µg/mL / inhibition at 500 µg/mL / inhibition at 1000 µg/mL: read-out: AChE Percent inhibition
T2 construct: The AChE was derived from the electric eel, while BChE was obtained from equineserum; from tissue; host or cells: electric eel (tissue not specified)
Method: as §2

[4] = DPPH free radical scavenging assay; format: biochemical
Method: as §3, §4

E. coli = assay: Antibacterial agar well diffusion; format: cell-based, Escherichia coli (ATCC25922); conditions: Escherichia coli, 24 h, 6.25 mg/mL per well, 37 °C
Source text: as §1

T1 sequence (P81908 whole entry): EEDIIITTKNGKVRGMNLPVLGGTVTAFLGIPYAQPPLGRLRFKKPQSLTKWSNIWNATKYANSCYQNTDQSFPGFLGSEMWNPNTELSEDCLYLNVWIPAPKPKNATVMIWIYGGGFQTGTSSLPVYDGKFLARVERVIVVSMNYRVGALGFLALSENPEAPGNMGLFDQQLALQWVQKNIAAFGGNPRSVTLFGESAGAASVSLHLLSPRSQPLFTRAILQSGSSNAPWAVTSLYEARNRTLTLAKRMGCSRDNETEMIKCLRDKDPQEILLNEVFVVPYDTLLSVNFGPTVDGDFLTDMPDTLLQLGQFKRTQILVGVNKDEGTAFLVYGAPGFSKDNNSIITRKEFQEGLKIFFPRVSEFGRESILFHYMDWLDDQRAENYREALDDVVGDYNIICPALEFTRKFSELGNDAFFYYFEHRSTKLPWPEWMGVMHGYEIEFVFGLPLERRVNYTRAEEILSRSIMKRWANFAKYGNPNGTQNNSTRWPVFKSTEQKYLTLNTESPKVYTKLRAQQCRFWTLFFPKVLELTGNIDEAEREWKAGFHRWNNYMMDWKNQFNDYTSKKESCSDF
T2 sequence (O42275 24-633): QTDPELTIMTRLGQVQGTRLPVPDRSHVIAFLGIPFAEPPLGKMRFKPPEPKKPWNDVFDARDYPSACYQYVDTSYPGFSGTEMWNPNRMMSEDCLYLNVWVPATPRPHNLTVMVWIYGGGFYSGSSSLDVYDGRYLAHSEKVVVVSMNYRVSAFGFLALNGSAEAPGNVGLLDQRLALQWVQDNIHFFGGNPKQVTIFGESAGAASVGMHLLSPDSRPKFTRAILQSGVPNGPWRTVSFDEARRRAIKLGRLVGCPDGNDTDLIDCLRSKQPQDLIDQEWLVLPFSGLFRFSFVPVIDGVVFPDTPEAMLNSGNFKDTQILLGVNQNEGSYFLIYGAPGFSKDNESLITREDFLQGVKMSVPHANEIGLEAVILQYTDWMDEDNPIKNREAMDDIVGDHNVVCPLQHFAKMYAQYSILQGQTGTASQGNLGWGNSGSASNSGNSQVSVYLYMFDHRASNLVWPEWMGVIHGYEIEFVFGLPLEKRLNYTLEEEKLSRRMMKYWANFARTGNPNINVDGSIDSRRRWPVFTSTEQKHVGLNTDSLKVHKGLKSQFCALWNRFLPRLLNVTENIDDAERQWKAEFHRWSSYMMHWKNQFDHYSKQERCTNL

Row | SMILES | zone of inhibition at 6250 µg/mL (S. typhi) [mm] | zone of inhibition at 6250 µg/mL (P. aeruginosa) [mm] | inhibition at 62.5 µg/mL [1] [%] | inhibition at 125 µg/mL [1] [%] | inhibition at 250 µg/mL [1] [%] | inhibition at 500 µg/mL [1] [%] | inhibition at 1000 µg/mL [1] [%] | ABTS IC50 [2] [µg/mL] | ABTS %inhibition ([2]; 62.5 μg/mL) [%] | ABTS %inhibition ([2]; 250 μg/mL) [%] | ABTS %inhibition ([2]; 500 μg/mL) [%] | ABTS %inhibition ([2]; 1000 μg/mL) [%] | zone of inhibition at 6250 µg/mL (S. flexenari) [mm] | IC50 [3] | DPPH IC50 [4] [µg/mL] | DPPH %inhibition ([4]; 62.5 μg/mL) [%] | DPPH %inhibition ([4]; 125 μg/mL) [%] | DPPH %inhibition ([4]; 250 μg/mL) [%] | DPPH %inhibition ([4]; 500 μg/mL) [%] | DPPH %inhibition ([4]; 1000 μg/mL) [%] | also measured
1 | CC1=C(C(=O)O)N2C(=O)[C@@H](NC(=O)[C@H](N)C3=CCC=CC3)[C@H]2SC1 [Std.Drug, Cephradine, reference compound] | 15 | – | – | – | – | – | – | – | – | – | – | – | – | – | – | – | – | – | – | – | Zone of inhibition (S. typhi): 25 mm and 20 mm and 14 mm and 13 mm
2 | Cc1ccc(NC(=S)NC2CCCCC2)c(C)c1 [Compound 3, 1-cyclohexyl-3-(2,4-dimethylphenyl) thiourea] | 8.5 | 13.5 | 44.29 ± 0.43 | 50.23 ± 0.44 | 55.8 ± 1.07 | 61.87 ± 0.39 | 67.44 ± 0.09 | 115.07 | 46.06 ± 1.86 | 62.14 ± 1.30 | 71.16 ± 2.10 | 80.11 ± 1.01 | 10 | 548 µM | 118.05 | 46.72 ± 2.13 | 51.88 ± 1.29 | 62.53 ± 1.11 | 71.19 ± 1.27 | 80.38 ± 1.10 | IC50 [1]: 468 µM; inhibition at 62.5 µg/mL [3]: 43.7 ± 0.66%; inhibition at 125 µg/mL [3]: 49.7 ± 0.35%; inhibition at 250 µg/mL [3]: 53.1 ± 0.62%; inhibition at 500 µg/mL [3]: 59.01 ± 0.42%; inhibition at 1000 µg/mL [3]: 65.5 ± 2.26%; zone of inhibition at 6250 µg/mL (E. coli): 11 mm
3 | S=C(Nc1ccccn1)NC1CCCCC1 [Compound 1, 1-cyclohexyl-3-(pyridin-2-yl) thiourea] | 10 | 9 | 65.8 ± 1.5 | 71.6 ± 1.06 | 76.42 ± 0.43 | 84.2 ± 1.83 | 91.76 ± 0.71 | 67.08 | 47.65 ± 1.74 | 63.59 ± 2.50 | 72.20 ± 1.90 | 84.81 ± 1.17 | 8.5 | 115 µM and 117 µM | 63.02 | 48.57 ± 2.03 | 54.32 ± 1.89 | 63.01 ± 1.65 | 75.63 ± 2.60 | 85.10 ± 1.45 | IC50 [1]: 96 µM; ABTS %inhibition ([2]; 125 μg/mL): 54.45 ± 0.96%; inhibition at 62.5 µg/mL [3]: 62.44 ± 0.58%; inhibition at 125 µg/mL [3]: 67.6 ± 1.73%; inhibition at 250 µg/mL [3]: 74.3 ± 2.15%; inhibition at 500 µg/mL [3]: 81.7 ± 1.34%; inhibition at 1000 µg/mL [3]: 88.6 ± 1.12%; zone of inhibition at 6250 µg/mL (E. coli): 9.5 mm
4 | Cc1cccnc1NC(=S)Nc1ccccc1 [Compound 5, 1-(3-methylpyridin-2-yl)-3-phenylthiourea] | 11.5 | 9.5 | 31.9 ± 0.48 | 39 ± 0.48 | 47.9 ± 0.96 | 61.6 ± 1.34 | 69.6 ± 1.12 | 44.60 | 67.80 ± 1.50 | 77.42 ± 0.43 | 85.23 ± 1.83 | 92.76 ± 0.71 | 10.5 | 1410 µM | 37.50 | 62.44 ± 0.58 | 67.56 ± 1.73 | 74.31 ± 2.15 | 81.65 ± 1.34 | 88.58 ± 1.12 | ABTS %inhibition ([2]; 125 μg/mL): 72.56 ± 1.06%; inhibition at 62.5 µg/mL [3]: 38.7 ± 0.68%; inhibition at 125 µg/mL [3]: 44.7 ± 1.25%; inhibition at 250 µg/mL [3]: 48 ± 0.75%; inhibition at 500 µg/mL [3]: 56.3 ± 1.06%; inhibition at 1000 µg/mL [3]: 63.3 ± 0.98%; zone of inhibition at 6250 µg/mL (E. coli): 10.5 mm
5 | O=C(O)c1cc(O)c(O)c(O)c1 [Gallic acid, gallic acid, reference compound] | – | – | – | – | – | – | – | 39.54 | 51.68 ± 0.22 | 66.43 ± 0.29 | 71.88 ± 0.20 | 75.89 ± 0.20 | – | – | 27.06 | 57.54 ± 0.46 | 63.83 ± 1.07 | 69.47 ± 0.46 | 75.45 ± 0.45 | 81.45 ± 0.65 | ABTS %inhibition ([2]; 125 μg/mL): 59.84 ± 0.32%
6 | COc1ccc2c3c1O[C@H]1C[C@@H](O)C=C[C@@]31CCN(C)C2 [Galantamine, reference compound] | – | – | 64.9 ± 0.87 | 67.9 ± 0.98 | – | 81.83 ± 0.37 | 89.64 ± 0.62 | – | – | – | – | – | – | – | – | – | – | – | – | – | –

From PMC11141368, “Antioxidant, antibacterial, enzyme inhibition and fluorescence characteristics of unsymmetrical thiourea derivatives” (Heliyon, 2024)
